No end group written: not given here.
Tests used:
[1] = molecular target: MHC class I allele B*0702 (B7) (Homo sapiens, UniProt P01889); assay: iScore multi-parametric analysis, B*0702; details: level of binding: >0.5, 0.25-0.5, <0.25
Procedure: (§1) Finally, multiparametric analysis is performed on the results from these assays and an iScore is generated. The iScore represents a measure of the overall quality of peptide-MHC binding, enabling candidate peptides to be ranked in order of binding quality and allowing rational prioritisation of peptides for functional cellular follow-up studies.
As part of the validation of the iTopia system, a panel of overlapping peptides derived from the CMV pp 65 protein were used and their binding properties for the A*0201 allele analysed. A number of T cell epitopes restricted by HLA A*0201 had already been identified (by more conventional methodologies) by other researchers for this protein. In the iTopia study, it was reported that an iScore of: >0.5 represented “good quality binding”; between 0.25 and 0.5 represented “medium quality binding”; and <0.25 represented “poor quality binding”.
(§2) Multi-parametric analysis permits the integration of half-life and ED50 parameters in an integrated iScore. This reflects the capability of a peptide to reconstitute with MHC molecules in a stable complex, defining its overall level of binding i.e. the iScore value represents the overall quality of peptide-MHC binding and is used to rank candidate peptides as an indicator of functional relevance. The lead candidate epitopes for each allele are selected for cellular functional analysis to confirm their biological relevance.

[2] = molecular target: MHC class I allele A*0301 (A3) (Homo sapiens, UniProt P04439); assay: iScore multi-parametric analysis, A*0301; type: binding; details: level of binding: >0.5, 0.25-0.5, <0.25
Procedure: as §1
(§3) As part of the validation of the iTopia system, a panel of overlapping peptides derived from the CMV pp 65 protein were used and their binding properties for the A*0201 allele analysed. A number of T cell epitopes restricted by HLA A*0201 had already been identified (by more conventional methodologies) by other researchers for this protein. In the iTopia study, it was reported that an iScore of: >0.5 represented “good quality binding”; between 0.25 and 0.5 represented “medium quality binding”; and <0.25 represented “poor quality binding”. Six of the 20 peptides which gave a “good” iScore (>0.5) for A*0201, represented previously characterised CMV pp 65 A*0201 epitopes.
(§4) Each MHC class I allele has different binding properties and affinities for peptides which they bind. Therefore, information obtained with HLA A*0201 in which peptides are ranked as good, medium or poor binders using >0.5, 0.25-0.5 and <0.25 as thresholds is not necessarily transferable between alleles. Also, different proteins are likely to have distinct immunogenic profiles and the affinities between peptides and MHC class I molecules will be different between proteins. This may be particularly relevant in the case of self-antigens where immunogenicity is likely to be lower than in foreign proteins.
as §2
(§5) The changes in gradient of the graphs in FIGS. 7 to 10 are indicated by a line which delineates the populations of iScores forming the basis of discrimination for further functional studies.

[3] = molecular target: MHC class I allele A*0101 (A1) (Homo sapiens, UniProt P04439, A114D/A174V/A182V/D101N/D185E/E176A/E190D/L180R/Q94H/R68K/S129P/T187R/V100A/V91M/W191G); assay: iScore multi-parametric analysis, A*0101; type: binding; details: for iScore, MHC Class I Molecule A*0101: level of binding: >0.5, 0.25-0.5, <0.25
Procedure: as §1, §3, §4, §2, §5

[4] = molecular target: MHC class I allele A*0201 (A2) (Homo sapiens, UniProt P04439, D140Y/D185E/D98H/E176V/E277Q/G131W/G231S/I119V/I121R/I166T/I218V/L300P/L318F/N151K/N90K/P208A/P217A/Q86G/Q94H/R138H/R169H/T345S); assay: iScore multi-parametric analysis, A*0201; type: binding; details: level of binding: >0.5, 0.25-0.5, <0.25
Procedure: as §1, §3, §4, §2, §5

Sequence | iScore, MHC Class I Molecule B*0702 [1] | iScore, MHC Class I Molecule A*0301 [2] | iScore, MHC Class I Molecule A*0101 [3] | iScore, MHC Class I Molecule A*0201 [4] | iScore (iTopia), A*0101 ([3]; integrates half-life and ED50)
RALQGLRRL [Peptide 104] | 0.078 | 0.027 | 0 | 0.168 | 
RGPAAGDGR [Peptide 4] | 0 | 0 | 0 | 0.032 | 
RLDEVRAGA [Peptide 65] | 0.032 | 0.057 | 0 | 0.422 | 
RSFEGMVVA [Peptide 97] | 0 | 0 | 0 | 0.189 | 
SASSFSSSA [Peptide 19] | 0 | 0 | 0 | 0.045 | 
SNASVSAPS [Peptide 83] | 0 | 0 | 0 | 0.154 | 
SNHFLYLPR [Peptide 110] | 0 | 0.084 | 0 | 0.051 | 
SPLVELILN [Peptide 87] | 0 | 0 | 0 | 0.094 | 
SPTSSASSF [Peptide 17] | 0.335 | 0 | 0 | 0 | 
SSAPFLASA [Peptide 22] | 0 | 0 | 0 | 0.389 | 
SSFSSSAPF [Peptide 20] | 0 | 0 | 0 | 0.037 | 
TSSASSFSS [Peptide 18] | 0 | 0 | 0 | 0.037 | 
VLAQLPSLR [Peptide 115] | 0 | 0.023 | 0 | 0.113 | 
VLPAGAFAR [Peptide 53] | 0 | 0.027 | 0 | 0.081 | 
VPTDLPAYV [Peptide 43] | 0 | 0 | 0.098 | 0.059 | 0.098
VRAGAFEHL [Peptide 67] | 0.085 | 0 | 0 | 0 | 

Second part, the sequence after the results:

iScore, MHC Class I Molecule B*0702 [1] | iScore, MHC Class I Molecule A*0301 [2] | iScore, MHC Class I Molecule A*0101 [3] | iScore, MHC Class I Molecule A*0201 [4] | iScore (iTopia), A*0101 ([3]; integrates half-life and ED50) | Sequence
0 | 0 | 0.027 | 0.127 |  | QTSYVFLGI [Peptide 177]
0 | 0 | 0 | 0.08 |  | RDACRDHME [Peptide 195]
0 | 0 | 0 | 0.029 |  | RHLDLSNNS [Peptide 119]
0 | 0 | 0 | 0.072 |  | RNLTHLESL [Peptide 128]
0 | 0 | 0 | 0.561 |  | SLQTSYVFL [Peptide 176]
0 | 0 | 0 | 0.03 |  | SLRHLDLSN [Peptide 118]
0 | 0 | 0 | 0.206 |  | SLVSLTYVS [Peptide 123]
0.045 | 0 | 0 | 0.118 |  | SYVFLGIVL [Peptide 178]
0 | 0 | 0 | 0.083 |  | TLAELQGLP [Peptide 139]
0 | 0 | 0 | 0.184 |  | TWLKETEVV [Peptide 154]
0 | 0 | 0 | 0.239 |  | VFLDNNPWV [Peptide 145]
0 | 0 | 0 | 0.606 |  | VFLGIVLAL [Peptide 179, VFLGIVLAL]
0 | 0 | 0 | 0.105 |  | VLLELNSAD [Peptide 167]
0.164 | 0.014 | 0 | 0.095 |  | VLYLNRKGI [Peptide 187]
0 | 0.025 | 0 | 0 |  | VSLTYVSFR [Peptide 124]
0 | 0 | 0 | 0.077 |  | YEINADPRL [Peptide 202]
0.089 | 0.065 | 0 | 0.118 |  | YLNRKGIKK [Peptide 188]
0.242 | 0 | 0 | 0 |  | YPEKMRNRV [Peptide 163]
0.21 | 0.086 | 0 | 0 |  | YVSFRNLTH [Peptide 126]

Reference: US8147838B2, “Peptide” (priority 2005, dated 2012)
